Reference: the NIST ThermoML archive (doi:10.1021/je400055v)

Assay: xn = mol fraction of the nth substance listed
Conditions: Liquid, Vibrating tube method

CCCCCCCCCCC [undecane] + CCCCCCC
Conditions	mass density [kg/m3]
342.97 K, 1001 kPa, x2 = 0.9511	645.7
342.97 K, 2000 kPa, x2 = 0.9511	647
342.97 K, 3000 kPa, x2 = 0.9511	648.4
342.97 K, 4000 kPa, x2 = 0.9511	649.7
342.97 K, 5000 kPa, x2 = 0.9511	650.9
342.97 K, 6000 kPa, x2 = 0.9511	652.2
342.97 K, 7000 kPa, x2 = 0.9511	653.4
342.97 K, 8000 kPa, x2 = 0.9511	654.6
342.97 K, 9000 kPa, x2 = 0.9511	655.8
342.97 K, 10000 kPa, x2 = 0.9511	657
342.97 K, 11000 kPa, x2 = 0.9511	658.1
342.97 K, 12000 kPa, x2 = 0.9511	659.2
342.97 K, 13000 kPa, x2 = 0.9511	660.3
342.97 K, 14001 kPa, x2 = 0.9511	661.4
342.97 K, 15001 kPa, x2 = 0.9511	662.5
342.97 K, 16000 kPa, x2 = 0.9511	663.5
342.97 K, 17001 kPa, x2 = 0.9511	664.5
342.97 K, 18001 kPa, x2 = 0.9511	665.6
342.97 K, 19000 kPa, x2 = 0.9511	666.6
342.97 K, 20000 kPa, x2 = 0.9511	667.5
342.97 K, 21001 kPa, x2 = 0.9511	668.5
342.97 K, 22000 kPa, x2 = 0.9511	669.4
342.97 K, 23001 kPa, x2 = 0.9511	670.4
342.97 K, 24000 kPa, x2 = 0.9511	671.3
342.97 K, 25000 kPa, x2 = 0.9511	672.2
343.01 K, 2001 kPa, x2 = 0.5063	680.1
343.01 K, 3000 kPa, x2 = 0.5063	681.2
343.01 K, 4000 kPa, x2 = 0.5063	682.3
343.01 K, 5000 kPa, x2 = 0.5063	683.4
343.01 K, 6000 kPa, x2 = 0.5063	684.5
343.01 K, 7000 kPa, x2 = 0.5063	685.5
343.01 K, 8001 kPa, x2 = 0.5063	686.5
343.01 K, 9000 kPa, x2 = 0.5063	687.6
343.01 K, 10000 kPa, x2 = 0.5063	688.6
343.01 K, 11000 kPa, x2 = 0.5063	689.5
343.01 K, 12000 kPa, x2 = 0.5063	690.5
343.01 K, 13000 kPa, x2 = 0.5063	691.5
343.01 K, 14000 kPa, x2 = 0.5063	692.4
343.01 K, 15000 kPa, x2 = 0.5063	693.4
343.01 K, 16000 kPa, x2 = 0.5063	694.3
343.01 K, 17001 kPa, x2 = 0.5063	695.2
343.01 K, 18000 kPa, x2 = 0.5063	696.1
343.01 K, 19000 kPa, x2 = 0.5063	697
343.01 K, 20000 kPa, x2 = 0.5063	697.8
343.01 K, 21001 kPa, x2 = 0.5063	698.7
343.01 K, 22050 kPa, x2 = 0.5063	699.5
343.01 K, 23000 kPa, x2 = 0.5063	700.4
343.01 K, 24000 kPa, x2 = 0.5063	701.2
343.01 K, 25000 kPa, x2 = 0.5063	702
343.02 K, 1001 kPa, x2 = 0.05	701.5
343.02 K, 2001 kPa, x2 = 0.05	702.5
343.02 K, 3000 kPa, x2 = 0.05	703.6
343.02 K, 4000 kPa, x2 = 0.05	704.6
343.02 K, 5000 kPa, x2 = 0.05	705.5
343.02 K, 6000 kPa, x2 = 0.05	706.5
343.02 K, 7000 kPa, x2 = 0.05	707.5
343.02 K, 8001 kPa, x2 = 0.05	708.4
343.02 K, 9000 kPa, x2 = 0.05	709.3
343.02 K, 10000 kPa, x2 = 0.05	710.2
343.02 K, 11000 kPa, x2 = 0.05	711.1
343.02 K, 12000 kPa, x2 = 0.05	712
343.02 K, 13000 kPa, x2 = 0.05	712.9
343.02 K, 14000 kPa, x2 = 0.05	713.8
343.02 K, 15000 kPa, x2 = 0.05	714.6
343.02 K, 16000 kPa, x2 = 0.05	715.5
343.02 K, 17000 kPa, x2 = 0.05	716.3
343.02 K, 18000 kPa, x2 = 0.05	717.1
343.02 K, 19000 kPa, x2 = 0.05	717.9
343.02 K, 20000 kPa, x2 = 0.05	718.7
343.02 K, 21000 kPa, x2 = 0.05	719.5
343.02 K, 22001 kPa, x2 = 0.05	720.3
343.02 K, 23000 kPa, x2 = 0.05	721.1
343.02 K, 24000 kPa, x2 = 0.05	721.8
343.02 K, 25000 kPa, x2 = 0.05	722.6
343.03 K, 1000 kPa, x2 = 0.7482	662.4
343.03 K, 2000 kPa, x2 = 0.7482	663.6
343.03 K, 3000 kPa, x2 = 0.7482	664.9
343.03 K, 4000 kPa, x2 = 0.7482	666.1
343.03 K, 5000 kPa, x2 = 0.7482	667.2
343.03 K, 6000 kPa, x2 = 0.7482	668.4
343.03 K, 7000 kPa, x2 = 0.7482	669.5
343.03 K, 8000 kPa, x2 = 0.7482	670.6
343.03 K, 9000 kPa, x2 = 0.7482	671.7
343.03 K, 10000 kPa, x2 = 0.7482	672.8
343.03 K, 11000 kPa, x2 = 0.7482	673.9
343.03 K, 12000 kPa, x2 = 0.7482	674.9
343.03 K, 13000 kPa, x2 = 0.7482	675.9
343.03 K, 14000 kPa, x2 = 0.7482	677
343.03 K, 15000 kPa, x2 = 0.7482	678
343.03 K, 16000 kPa, x2 = 0.7482	678.9
343.03 K, 17000 kPa, x2 = 0.7482	679.9
343.03 K, 18000 kPa, x2 = 0.7482	680.8
343.03 K, 19000 kPa, x2 = 0.7482	681.8
